Assay results: ChEMBL document CHEMBL3272113, “Inhibitors of the luteinizing hormone-releasing hormone based upon modifications in the 2, 3, and 6 positions” (J Med Chem, 1976)
Each block holds one compound with its values, some of them ahead of it. Square brackets hold non-standard residues; d marks the D form. Peptide text beside a SMILES is read from it. pGlu = O=C1CC[C@@H](C(=O)O)N1

Assays:
[1] = Retardation factor of the compound using EtOAc-pyridine-AcOH-H2O at ratio of 5:5:1:3 as solvent system by thin layer chromatography; type: physicochemical
[2] = molecular target: Gonadotropin-releasing hormone receptor (Rattus norvegicus) (UniProt P30969); assay: Antagonist activity at LH-RH receptor in rat pituitary gland assessed as inhibition of LH-RH-induced FSH release
[3] = Retardation factor of the compound using 2-propanol-1N AcOH at ratio of 2:1 as solvent system by thin layer chromatography; type: physicochemical
[4] = molecular target: Gonadotropin-releasing hormone receptor (Rattus norvegicus) (UniProt P30969); assay: Antagonist activity at LH-RH receptor in rat pituitary gland assessed as inhibition of LH-RH-induced FSH release by measuring change in FSH level in medium at 1000 ng/ml
[5] = Retardation factor of the compound using EtOH-H2O at ratio of 7:3 as solvent system by thin layer chromatography; type: physicochemical
[6] = molecular target: Gonadotropin-releasing hormone receptor (Rattus norvegicus) (UniProt P30969); assay: Antagonist activity at LH-RH receptor in rat pituitary gland assessed as inhibition of LH-RH-induced luteinizing hormone release
[7] = molecular target: Gonadotropin-releasing hormone receptor (Rattus norvegicus) (UniProt P30969); assay: Antagonist activity at LH-RH receptor in rat pituitary gland assessed as inhibition of LH-RH-induced luteinizing hormone release by measuring change in LH level in medium at 1000 ng/ml
[8] = molecular target: Gonadotropin-releasing hormone receptor (Rattus norvegicus) (UniProt P30969); assay: Agonist activity at LH-RH receptor in rat pituitary gland assessed as change in FSH secretion at 100000 ng/ml
[9] = molecular target: Gonadotropin-releasing hormone receptor (Rattus norvegicus) (UniProt P30969); assay: Antagonist activity at LH-RH receptor in rat pituitary gland assessed as inhibition of LH-RH-induced luteinizing hormone release by measuring change in LH level in medium at 10000 ng/ml
[10] = molecular target: Gonadotropin-releasing hormone receptor (Rattus norvegicus) (UniProt P30969); assay: Agonist activity at LH-RH receptor in rat pituitary gland assessed as change in luteinizing hormone secretion at 100000 ng/ml
[11] = Retardation factor of the compound using 1-BuOH-pyridine-AcOH-H2O at ratio of 30:20:6:24 as solvent system by thin layer chromatography; type: physicochemical
[12] = Retardation factor of the compound using 1-BuOH-AcOH-EtOAc-H2O at ratio of 1:1:1:1 as solvent system by thin layer chromatography; type: physicochemical
[13] = molecular target: Gonadotropin-releasing hormone receptor (Rattus norvegicus) (UniProt P30969); assay: Antagonist activity at LH-RH receptor in rat pituitary gland assessed as inhibition of LH-RH-induced FSH release by measuring change in FSH level in medium at 10000 ng/ml
[14] = Retardation factor of the compound using CHCl3-MeOH-concentrated NH4OH as solvent system by thin layer chromatography; type: physicochemical
[15] = molecular target: Gonadotropin-releasing hormone receptor (Rattus norvegicus) (UniProt P30969); assay: Antagonist activity at LH-RH receptor in rat pituitary gland assessed as inhibition of LH-RH-induced luteinizing hormone release by measuring change in LH level in medium at 100000 ng/ml
[16] = molecular target: Gonadotropin-releasing hormone receptor (Rattus norvegicus) (UniProt P30969); assay: Antagonist activity at LH-RH receptor in rat pituitary gland assessed as inhibition of LH-RH-induced FSH release by measuring change in FSH level in medium at 100000 ng/ml
Rattus norvegicus [17] = assay: Induction of LH release in immature rat administered as infusion relative to LH-RH; type: functional
Rattus norvegicus [18] = assay: Induction of FSH release in immature rat administered as infusion relative to LH-RH; type: functional
[19] = system: Gonadotropin-releasing hormone receptor; assay: Agonist activity at LH-RH receptor (unknown origin) relative to LH-RH

Sequence of Gonadotropin-releasing hormone receptor (Rattus norvegicus) (P30969 whole entry, looked up): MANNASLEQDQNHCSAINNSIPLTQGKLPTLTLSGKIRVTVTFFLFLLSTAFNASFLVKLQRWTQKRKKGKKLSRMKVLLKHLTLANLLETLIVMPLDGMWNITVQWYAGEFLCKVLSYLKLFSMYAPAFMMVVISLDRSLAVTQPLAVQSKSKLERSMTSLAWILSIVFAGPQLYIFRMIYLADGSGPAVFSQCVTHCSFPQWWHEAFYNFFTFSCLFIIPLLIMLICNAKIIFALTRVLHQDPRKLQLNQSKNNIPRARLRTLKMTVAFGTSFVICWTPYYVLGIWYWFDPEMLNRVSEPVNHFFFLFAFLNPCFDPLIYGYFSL

Structure (SMILES): CC(C)C[C@H](NC(=O)CNC(=O)[C@H](Cc1ccc(O)cc1)NC(=O)[C@H](CO)NC(=O)[C@H](CC(C)C)NC(=O)[C@H](CC(C)C)NC(=O)[C@@H]1CCC(=O)N1)C(=O)N[C@@H](CCCNC(=N)N)C(=O)N1CCC[C@H]1C(=O)NCC(N)=O ([pGlu]LLSYGLRPG-NH2)
MED [2]: 100 µg/mL
MED [6]: 100 µg/mL

Structure (SMILES): CC(C)C[C@H](NC(=O)[C@@H]1CCC(=O)N1)C(=O)N[C@H](C(=O)N[C@@H](CO)C(=O)N[C@@H](Cc1ccc(O)cc1)C(=O)N[C@H](C)C(=O)N[C@@H](CC(C)C)C(=O)N[C@@H](CCCNC(=N)N)C(=O)N1CCC[C@H]1C(=O)NCC(N)=O)C(C)C
Rf [14]: 0.58
Rf [1]: 0.71
MED [2]: 100 µg/mL
Rf [3]: 0.57
Rf [5]: 0.62
Activity [15]: 13 ng/mL
Activity [16]: -399 ng/mL
MED [6]: 100 µg/mL
Activity [8]: -185 ng/mL
Activity [9]: 150 ng/mL
Activity [10]: -37 ng/mL
Rf [12]: 0.66
Activity [13]: 3770 ng/mL

Structure (SMILES): CCNC(=O)[C@@H]1CCCN1C(=O)[C@H](CCCNC(=N)N)NC(=O)[C@H](CC(C)C)NC(=O)[C@@H](C)NC(=O)[C@H](Cc1ccc(O)cc1)NC(=O)[C@H](CO)NC(=O)[C@H](Cc1c[nH]c2ccccc12)NC(=O)[C@H](Cc1cnc[nH]1)NC(=O)[C@@H]1CCC(=O)N1
Activity (Rattus norvegicus [17]): 1600%
Activity (Rattus norvegicus [18]): 1200%

Structure (SMILES): CC(C)C[C@H](NC(=O)[C@@H](C)NC(=O)[C@H](Cc1ccc(O)cc1)NC(=O)[C@H](CO)NC(=O)[C@@H](NC(=O)[C@@H](NC(=O)[C@@H]1CCC(=O)N1)C(C)C)C(C)C)C(=O)N[C@@H](CCCNC(=N)N)C(=O)N1CCC[C@H]1C(=O)NCC(N)=O
Rf [14]: 0.53
Rf [1]: 0.7
MED [2]: 100 µg/mL
Rf [3]: 0.54
Rf [5]: 0.62
Activity [15]: 35 ng/mL
Activity [16]: 770 ng/mL
MED [6]: 100 µg/mL
Activity [8]: 850 ng/mL
Activity [9]: 313 ng/mL
Activity [10]: 17 ng/mL
Rf [12]: 0.64
Activity [13]: 4810 ng/mL

More lines, now with the values ahead:

Rf [1]: 0.8
MED [2]: 10 µg/mL
Rf [3]: 0.67
Activity [4]: 9280 ng/mL
Rf [5]: 0.63
MED [6]: 10 µg/mL
Activity [7]: 460 ng/mL
Activity [8]: 1690 ng/mL
Activity [9]: 3 ng/mL
Activity [10]: 26 ng/mL
Rf [11]: 0.59
Rf [12]: 0.69
Activity [13]: 2700 ng/mL
Structure (SMILES): CC(C)C[C@H](NC(=O)[C@@H]1CCC(=O)N1)C(=O)N[C@@H](CC(C)C)C(=O)N[C@@H](CO)C(=O)N[C@@H](Cc1ccc(O)cc1)C(=O)N[C@H](C)C(=O)N[C@@H](CC(C)C)C(=O)N[C@@H](CCCNC(=N)N)C(=O)N1CCC[C@H]1C(=O)NCC(N)=O

Rf [14]: 0.58
Rf [1]: 0.71
MED [2]: 10 µg/mL
Rf [3]: 0.58
Activity [4]: 6170 ng/mL
Rf [5]: 0.62
MED [6]: 10 µg/mL
Activity [7]: 246 ng/mL
Activity [8]: 158 ng/mL
Activity [9]: 28 ng/mL
Activity [10]: -9 ng/mL
Rf [12]: 0.66
Activity [13]: 1260 ng/mL
Structure (SMILES): CC(C)C[C@H](NC(=O)[C@@H](NC(=O)[C@@H]1CCC(=O)N1)C(C)C)C(=O)N[C@@H](CO)C(=O)N[C@@H](Cc1ccc(O)cc1)C(=O)N[C@H](C)C(=O)N[C@@H](CC(C)C)C(=O)N[C@@H](CCCNC(=N)N)C(=O)N1CCC[C@H]1C(=O)NCC(N)=O

MED [2]: 30 µg/mL
MED [6]: 30 µg/mL
Structure (SMILES): CC(C)C[C@H](NC(=O)CNC(=O)[C@H](Cc1ccc(O)cc1)NC(=O)[C@H](CO)NC(=O)[C@H](Cc1c[nH]c2ccccc12)NC(=O)[C@@H]1CCC(=O)N1)C(=O)N[C@@H](CCCNC(=N)N)C(=O)N1CCC[C@H]1C(=O)NCC(N)=O ([pGlu]WSYGLRPG-NH2)

Activity [19]: 300%
Structure (SMILES): CC(C)C[C@H](NC(=O)[C@@H](C)NC(=O)[C@H](Cc1ccc(O)cc1)NC(=O)[C@H](CO)NC(=O)[C@H](Cc1c[nH]c2ccccc12)NC(=O)[C@H](Cc1cnc[nH]1)NC(=O)[C@@H]1CCC(=O)N1)C(=O)N[C@@H](CCCNC(=N)N)C(=O)N1CCC[C@H]1C(=O)NCC(N)=O
